Test results reported in paper PMC10094639, “Novel Antibiotic Resistance Genes Identified by Functional Gene Library Screening in Stenotrophomonas maltophilia and Chryseobacterium spp. Bacteria of Soil Origin” (International Journal of Molecular Sciences, 2023).
Values after ≈ are worked out from the molar mass of the structure shown.

What was measured:
[1] = test system: Chryseobacterium sp.; experiment: microbe, parasite or virus in culture; parameters: Broth microdilution MIC (Sensititre plates, ARIS 2X) against soil bacterial isolates; details: Chryseobacterium
Text: (§1) Six Stenotrophomonas maltophilia and eight Chryseobacterium spp. antibiotic-resistant isolates were used for genomic library construction; all bacteria were isolated from farming field soil in Lithuania during the year 2016 [17, 65]. The isolates were designated as resistant if the MIC of antibiotic value matched EUCAST clinical breakpoints (v. 7.0, 2017, PK/PD (non-species related). Species were identified by matching obtained sequences with a sequence showing the highest maximum identity score from the GenBank database. If the identity of the best match was <99% and the query cover was <96%, only the genus was assigned. All environmental isolates were grown in LB medium at 28 °C. The bacteria were isolated from three farming fields in Lithuania during the year 2016 [17]. The sample collection points represented two different types of farming, i.e., organic and conventional (intensive); in all cases, the type of the soil was sandy loam. The organic farming sites were known not to use inorganic fertilizers or pesticides for a time period of over 20 years and were fertilized only with organic fertilizers (farmyard manure and slurry). Identification of bacterial isolates was based on 16S rRNA fragment sequencing as described previously. All six isolates of S. maltophilia were collected from a conventional winter wheat farming field. Antibiotic-resistant Chryseobacterium spp. isolates were recovered from various fields (conventional winter wheat, conventional rapeseed, and organic rapeseed). Two of the isolates were identified as C. aahli, and another two were identified as C. soldanellicola; for four of the isolates, only the genus could be assigned as Chryseobacterium spp. All selected isolates of S. maltophilia and Chryseobacterium spp. were resistant to at least two classes of antibiotics (β-lactams, aminoglycosides, and/or fluoroquinolones) (Table S1).

[2] = test system: C. aahli; experiment: organism not typed; parameters: Broth microdilution MIC (Sensititre plates, ARIS 2X) against soil bacterial isolates; details: soil
Text: as §1

[3] = test system: S. maltophilia; experiment: microbe, parasite or virus in culture; parameters: Broth microdilution MIC (Sensititre plates, ARIS 2X) against soil bacterial isolates; details: Stenotrophomonas maltophilia
Text: as §1

[4] = test system: C. soldanellicola; experiment: organism not typed; parameters: Broth microdilution MIC (Sensititre plates, ARIS 2X) against soil bacterial isolates; details: soil
Text: as §1

[5] = test system: T1, IND-17; experiment: UV-Vis spectrophotometry, initial hydrolysis rates, […] nm; type: biochemical, Chryseobacterium sp.; details: 50 mM HEPES pH 7.0, 50 µM ZnCl2, 22 °C
T1 construct: signal peptide removed; pET-28b (NcoI) in E. coli BL21 Tuner (DE3); no tag mentioned

[6] = test system: T2, CHM; experiment: as above; type: biochemical, Chryseobacterium sp.; details: 50 mM HEPES pH 7.0, 50 µM ZnCl2, 22 °C
T2 construct: signal peptide removed; pET-28b (NcoI) in E. coli BL21 Tuner (DE3); no tag mentioned

[7] = test system: T2, CHM; experiment: as above; type: biochemical, Chryseobacterium sp.; details: 50 mM HEPES pH 7.0, 50 µM ZnCl2, 22 °C; remark: listed apart in the source
[8] = test system: T1, IND-17; experiment: as above; type: biochemical, Chryseobacterium sp.; details: 50 mM HEPES pH 7.0, 50 µM ZnCl2, 22 °C; remark: listed apart in the source
[9] = test system: T2, CHM; experiment: as above; type: biochemical, Chryseobacterium sp.; details: 50 mM HEPES pH 7.0, 50 µM ZnCl2, 22 °C; remark: listed apart in the source
[10] = test system: T1, IND-17; experiment: as above; type: biochemical, Chryseobacterium sp.; details: 50 mM HEPES pH 7.0, 50 µM ZnCl2, 22 °C; remark: listed apart in the source
[11] = test system: T1, IND-17; experiment: as above; type: biochemical, Chryseobacterium sp.; details: 50 mM HEPES pH 7.0, 50 µM ZnCl2, 22 °C; remark: listed apart in the source
[12] = test system: T1, IND-17; experiment: as above; type: biochemical, Chryseobacterium sp.; details: 50 mM HEPES pH 7.0, 50 µM ZnCl2, 22 °C; remark: listed apart in the source
[13] = test system: T2, CHM; experiment: as above; type: biochemical, Chryseobacterium sp.; details: 50 mM HEPES pH 7.0, 50 µM ZnCl2, 22 °C; remark: listed apart in the source

Row | Structure (SMILES) | MIC ([1]; Isolate No.=2-2-6) [µg/mL] | MIC ([1]; Isolate No.=2-4-10) [µg/mL] | MIC ([2]; Isolate No.=3-7-14) [µg/mL] | MIC ([3]; Isolate No.=2-1-3) [µg/mL] | MIC ([3]; Isolate No.=2-12-28) [µg/mL] | MIC ([4]; Isolate No.=3-7-16) [µg/mL] | MIC ([4]; Isolate No.=4-6-16) [µg/mL] | MIC ([2]; Isolate No.=3-12-27) [µg/mL] | MIC ([3]; Isolate No.=2-4-11) [µg/mL] | other results
1 | CO/N=C(\C(=O)N[C@@H]1C(=O)N2C(C(=O)O)=C(CSc3nc(=O)c(O)nn3C)CS[C@H]12)c1csc(N)n1 [Ceftriaxone] | > 64 | 64 (≈ 115 µM) | 64 (≈ 115 µM) | 32 (≈ 57.7 µM) | > 64 | 4 (≈ 7.21 µM) | 8 (≈ 14.4 µM) |  |  | 
2 | O=C1CN(/N=C/c2ccc([N+](=O)[O-])o2)C(=O)N1 [Nitrofurantoin] | 64 (≈ 269 µM) | 32 (≈ 134 µM) | 128 (≈ 537 µM) | 128 (≈ 537 µM) |  | 64 (≈ 269 µM) | ≤ 16 | 64 (≈ 269 µM) | > 128 | 
3 | Cc1nnc(SCC2=C(C(=O)O)N3C(=O)[C@@H](NC(=O)Cn4cnnn4)[C@H]3SC2)s1 [Cefazolin] | > 32 |  | 32 (≈ 70.4 µM) | 32 (≈ 70.4 µM) |  | 32 (≈ 70.4 µM) | > 32 |  | > 32 | Km [5]: 38 ± 12 µM; Km [6]: 167 ± 27 µM
4 | COCC1=C(C(=O)O)N2C(=O)[C@@H](NC(=O)/C(=N\OC)c3csc(N)n3)[C@H]2SC1 [Cefpodoxime] | > 16 |  | 16 (≈ 37.4 µM) | 16 (≈ 37.4 µM) |  | 4 (≈ 9.36 µM) | 8 (≈ 18.7 µM) |  | > 16 | 
5 | O=C(O)c1cn(C2CC2)c2cc(N3CCNCC3)c(F)cc2c1=O [Ciprofloxacin] | ≤ 0.5 | 1 (≈ 3.02 µM) | 2 (≈ 6.04 µM) | 1 (≈ 3.02 µM) | 2 (≈ 6.04 µM) | ≤ 0.5 |  | ≤ 0.5 |  | MIC ([3]; Isolate No.=2-8-21): ≤ 0.5 µg/mL
6 | NCC[C@H](O)C(=O)N[C@@H]1C[C@H](N)[C@@H](O[C@H]2O[C@H](CN)[C@@H](O)[C@H](O)[C@H]2O)[C@H](O)[C@H]1O[C@H]1O[C@H](CO)[C@@H](O)[C@H](N)[C@H]1O [Amikacin] | ≤ 8 |  | 32 (≈ 54.6 µM) | ≤ 8 |  | 32 (≈ 54.6 µM) | ≤ 8 | ≤ 8 | 16 (≈ 27.3 µM) | MIC ([1]; Isolate No.=2-6-15): 32 µg/mL (≈ 54.6 µM); MIC ([3]; Isolate No.=2-8-21): 32 µg/mL (≈ 54.6 µM)
7 | O=C(Cc1cccs1)N[C@@H]1C(=O)N2C(C(=O)O)=C(/C=C/c3ccc([N+](=O)[O-])cc3[N+](=O)[O-])CS[C@H]12 [Nitrocefin] |  |  |  |  |  |  |  |  |  | Km [7]: 153 ± 10 µM; Km [8]: 152 ± 4.7 µM
8 | CO[C@@]1(NC(=O)Cc2cccs2)C(=O)N2C(C(=O)O)=C(COC(N)=O)CS[C@@H]21 [Cefoxitin] | > 32 | 32 (≈ 74.9 µM) | 32 (≈ 74.9 µM) | 32 (≈ 74.9 µM) | > 32 | 8 (≈ 18.7 µM) | 16 (≈ 37.4 µM) |  |  | MIC ([1]; Isolate No.=2-6-15): 16 µg/mL (≈ 37.4 µM)
9 | CO/N=C(\C(=O)N[C@@H]1C(=O)N2C(C(=O)O)=C(COC(N)=O)CS[C@H]12)c1ccco1 [Cefuroxime] | > 32 |  | 32 (≈ 75.4 µM) | 32 (≈ 75.4 µM) |  | 32 (≈ 75.4 µM) |  |  | > 32 | Km [5]: 30 ± 5.8 µM; Km [6]: 76 ± 19 µM
10 | NC[C@H]1O[C@H](O[C@H]2[C@H](O)[C@@H](O[C@H]3O[C@H](CO)[C@@H](O)[C@H](N)[C@H]3O)[C@H](N)C[C@@H]2N)[C@H](N)C[C@@H]1O [Tobramycin] | > 8 |  | 8 (≈ 17.1 µM) | ≤ 4 |  | 8 (≈ 17.1 µM) |  |  |  | MIC ([3]; Isolate No.=2-8-21): 8 µg/mL (≈ 17.1 µM)
11 | C[C@@H](O)[C@H]1C(=O)N2C(C(=O)O)=C(S[C@@H]3CN[C@H](C(=O)N(C)C)C3)[C@H](C)[C@H]12 [Meropenem] | > 8 |  | 8 (≈ 20.9 µM) | ≤ 1 | > 8 | 2 (≈ 5.22 µM) | 4 (≈ 10.4 µM) |  | 2 (≈ 5.22 µM) | Km [9]: 10 ± 2 µM; Km [10]: 258 ± 25 µM
12 | CC(C)(O/N=C(\C(=O)N[C@@H]1C(=O)N2C(C(=O)[O-])=C(C[n+]3ccccc3)CS[C@H]12)c1csc(N)n1)C(=O)O [Ceftazidime] | 2 (≈ 3.66 µM) | 4 (≈ 7.32 µM) | 8 (≈ 14.6 µM) | 4 (≈ 7.32 µM) | 8 (≈ 14.6 µM) | ≤ 1 |  | 4 (≈ 7.32 µM) | 2 (≈ 3.66 µM) | Km [6]: 200 ± 41 µM
13 | CCN1CCN(C(=O)N[C@@H](C(=O)N[C@@H]2C(=O)N3[C@@H]2SC(C)(C)[C@@H]3C(=O)O)c2ccccc2)C(=O)C1=O [Piperacillin] | 32 (≈ 61.8 µM) | ≤ 16 | 32 (≈ 61.8 µM) | 64 (≈ 124 µM) | 32 (≈ 61.8 µM) | ≤ 16 |  | ≤ 16 | ≤ 16 | MIC ([1]; Isolate No.=2-6-15): 128 µg/mL (≈ 247 µM)
14 | CO[C@@]1(NC(=O)C2SC(=C(C(N)=O)C(=O)O)S2)C(=O)N2C(C(=O)O)=C(CSc3nnnn3C)CS[C@@H]21 (some centres unmarked) [Cefotetan Na] | > 32 |  | 32 (≈ 55.6 µM) | 4 (≈ 6.95 µM) |  | 32 (≈ 55.6 µM) | > 32 |  | ≤ 8 | 
15 | CC1(C)S[C@@H]2[C@H](NC(=O)[C@H](N)c3ccccc3)C(=O)N2[C@H]1C(=O)O [Ampicillin] |  |  |  |  |  |  |  |  |  | Km [11]: 470 ± 108 µM
16 | CO/N=C(\C(=O)N[C@@H]1C(=O)N2C(C(=O)[O-])=C(C[N+]3(C)CCCC3)CS[C@H]12)c1csc(N)n1 [Cefepime] | ≤ 4 |  | 8 (≈ 16.6 µM) | ≤ 4 | > 32 | ≤ 4 |  | ≤ 4 |  | MIC ([3]; Isolate No.=2-12-31): 16 µg/mL (≈ 33.3 µM)
17 | C[C@H]1[C@H](NC(=O)/C(=N\OC(C)(C)C(=O)O)c2csc(N)n2)C(=O)N1S(=O)(=O)O [Aztreonam] | > 32 |  | 32 (≈ 73.5 µM) | 16 (≈ 36.7 µM) | 32 (≈ 73.5 µM) | 32 (≈ 73.5 µM) | > 32 |  | ≤ 8 | 
18 | C[C@@H](O)[C@H]1C(=O)N2C(C(=O)O)=C(SCCN=CN)C[C@H]12 [Imipenem] | 8 (≈ 26.7 µM) | ≤ 2 | 16 (≈ 53.4 µM) | 16 (≈ 53.4 µM) |  | 4 (≈ 13.4 µM) |  |  | > 16 | Km [12]: 185 ± 19 µM; Km [13]: 389 ± 48 µM; MIC ([1]; Isolate No.=2-8-20): 4 µg/mL (≈ 13.4 µM)
